Laboratory results published in ChEMBL document CHEMBL4017490, “Design, Synthesis, and Pharmacological Evaluation of Novel Multisubstituted Pyridin-3-amine Derivatives as Multitargeted Protein Kinase Inhibitors for the Treatment of Non-Small Cell Lung Cancer” (J Med Chem, 2017).

How the values were obtained:
[1] = molecular target: T1, Tyrosine-protein kinase receptor UFO (Homo sapiens, UniProt P30530); test: Inhibition of recombinant AXL (unknown origin) using poly (Glu,Tyr) 4:1 as substrate after 60 mins by ELISA
T1 sequence (P30530 whole entry): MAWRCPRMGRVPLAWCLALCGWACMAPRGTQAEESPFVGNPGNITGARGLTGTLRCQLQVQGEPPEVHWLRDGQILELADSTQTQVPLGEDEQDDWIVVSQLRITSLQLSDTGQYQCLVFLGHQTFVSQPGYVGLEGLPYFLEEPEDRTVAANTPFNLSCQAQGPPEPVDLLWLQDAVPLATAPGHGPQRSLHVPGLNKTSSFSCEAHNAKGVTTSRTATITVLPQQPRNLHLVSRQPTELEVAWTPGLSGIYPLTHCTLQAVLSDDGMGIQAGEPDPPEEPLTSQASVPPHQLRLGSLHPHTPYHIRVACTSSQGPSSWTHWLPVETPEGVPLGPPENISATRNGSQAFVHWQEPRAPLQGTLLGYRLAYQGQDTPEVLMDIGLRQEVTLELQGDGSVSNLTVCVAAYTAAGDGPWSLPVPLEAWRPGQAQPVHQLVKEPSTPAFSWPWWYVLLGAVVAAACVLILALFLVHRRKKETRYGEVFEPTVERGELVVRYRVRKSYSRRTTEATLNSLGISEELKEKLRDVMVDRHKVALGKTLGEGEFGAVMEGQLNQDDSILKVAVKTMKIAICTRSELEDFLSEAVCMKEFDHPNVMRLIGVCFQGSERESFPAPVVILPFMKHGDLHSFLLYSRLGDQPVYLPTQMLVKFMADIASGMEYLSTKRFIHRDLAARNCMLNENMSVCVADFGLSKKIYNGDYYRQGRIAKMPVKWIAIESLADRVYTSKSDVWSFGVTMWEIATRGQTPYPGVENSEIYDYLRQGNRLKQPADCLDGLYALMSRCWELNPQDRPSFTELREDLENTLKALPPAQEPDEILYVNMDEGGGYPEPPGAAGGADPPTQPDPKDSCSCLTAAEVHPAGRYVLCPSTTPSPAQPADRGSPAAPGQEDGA

[2] = molecular target: Proto-oncogene tyrosine-protein kinase ROS (Homo sapiens, UniProt P08922); test: Inhibition of recombinant ROS1 (unknown origin) using poly (Glu,Tyr) 4:1 as substrate after 60 mins by ELISA
[3] = molecular target: Epidermal growth factor receptor (Homo sapiens, UniProt P00533, L858R/T790M); test: Inhibition of recombinant EGFR T790M/L858R mutant (unknown origin) using poly (Glu,Tyr) 4:1 as substrate after 60 mins by ELISA
Insulin receptor = Insulin receptor (Homo sapiens, UniProt P06213); test: Inhibition of recombinant IR (unknown origin) using poly (Glu,Tyr) 4:1 as substrate after 60 mins by ELISA
[4] = molecular target: Fibroblast growth factor receptor 3 (Homo sapiens, UniProt P22607); test: Inhibition of recombinant human FGFR3 using poly (Glu,Tyr) 4:1 as substrate after 60 mins by ELISA
[5] = molecular target: Receptor tyrosine-protein kinase erbB-4 (Homo sapiens, UniProt Q15303); test: Inhibition of recombinant ErbB4 (unknown origin) using poly (Glu,Tyr) 4:1 as substrate after 60 mins by ELISA
Sequence of Receptor tyrosine-protein kinase erbB-4 (Q15303 whole entry): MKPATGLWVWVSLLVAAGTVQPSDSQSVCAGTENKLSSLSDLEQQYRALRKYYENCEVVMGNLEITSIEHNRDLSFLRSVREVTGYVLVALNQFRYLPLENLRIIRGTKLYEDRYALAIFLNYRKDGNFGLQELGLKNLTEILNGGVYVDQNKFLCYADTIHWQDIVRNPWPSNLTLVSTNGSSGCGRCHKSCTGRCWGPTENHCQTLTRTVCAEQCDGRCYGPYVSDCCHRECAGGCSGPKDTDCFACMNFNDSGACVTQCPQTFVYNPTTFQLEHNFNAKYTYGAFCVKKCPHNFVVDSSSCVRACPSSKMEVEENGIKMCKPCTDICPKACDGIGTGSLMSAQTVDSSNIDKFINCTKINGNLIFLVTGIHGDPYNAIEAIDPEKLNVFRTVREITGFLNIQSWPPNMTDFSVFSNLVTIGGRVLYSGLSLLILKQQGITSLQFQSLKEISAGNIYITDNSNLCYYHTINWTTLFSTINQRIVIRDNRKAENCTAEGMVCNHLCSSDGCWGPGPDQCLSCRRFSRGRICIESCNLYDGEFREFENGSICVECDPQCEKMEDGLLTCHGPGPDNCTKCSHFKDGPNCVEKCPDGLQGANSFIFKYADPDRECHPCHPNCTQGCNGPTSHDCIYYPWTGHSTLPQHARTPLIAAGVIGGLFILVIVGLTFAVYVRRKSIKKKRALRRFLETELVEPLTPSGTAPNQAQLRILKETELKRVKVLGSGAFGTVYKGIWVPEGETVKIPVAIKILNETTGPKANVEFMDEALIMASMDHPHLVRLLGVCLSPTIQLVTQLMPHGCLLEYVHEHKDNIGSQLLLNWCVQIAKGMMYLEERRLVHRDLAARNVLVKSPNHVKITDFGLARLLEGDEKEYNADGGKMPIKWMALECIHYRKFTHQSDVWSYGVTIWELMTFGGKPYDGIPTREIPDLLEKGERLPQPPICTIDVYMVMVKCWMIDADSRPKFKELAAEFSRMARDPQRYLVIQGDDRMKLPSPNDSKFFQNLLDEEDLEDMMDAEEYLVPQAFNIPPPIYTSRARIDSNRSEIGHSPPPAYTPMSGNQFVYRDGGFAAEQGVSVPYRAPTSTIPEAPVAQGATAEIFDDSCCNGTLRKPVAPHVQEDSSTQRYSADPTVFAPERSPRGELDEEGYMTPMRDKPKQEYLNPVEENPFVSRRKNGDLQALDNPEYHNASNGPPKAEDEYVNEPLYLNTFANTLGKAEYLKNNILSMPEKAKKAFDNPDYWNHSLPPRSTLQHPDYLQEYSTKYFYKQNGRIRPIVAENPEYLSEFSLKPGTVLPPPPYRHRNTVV

[6] = molecular target: Cyclin-dependent kinase 4 (Homo sapiens, UniProt P11802); test: Inhibition of CDK4 (unknown origin) by FRET assay
Sequence of Cyclin-dependent kinase 4 (P11802 whole entry): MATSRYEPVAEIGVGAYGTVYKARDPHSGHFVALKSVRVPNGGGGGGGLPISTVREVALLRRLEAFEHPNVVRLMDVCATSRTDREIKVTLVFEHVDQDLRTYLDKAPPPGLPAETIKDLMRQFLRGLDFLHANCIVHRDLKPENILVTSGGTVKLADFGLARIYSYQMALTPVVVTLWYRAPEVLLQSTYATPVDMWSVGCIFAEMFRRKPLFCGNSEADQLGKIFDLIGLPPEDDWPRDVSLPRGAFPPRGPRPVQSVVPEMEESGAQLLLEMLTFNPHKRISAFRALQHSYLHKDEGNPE

[7] = molecular target: Receptor tyrosine-protein kinase erbB-2 (Homo sapiens, UniProt P04626); test: Inhibition of recombinant ErbB2 (unknown origin) using poly (Glu,Tyr) 4:1 as substrate after 60 mins by ELISA
Sequence of Receptor tyrosine-protein kinase erbB-2 (P04626 whole entry): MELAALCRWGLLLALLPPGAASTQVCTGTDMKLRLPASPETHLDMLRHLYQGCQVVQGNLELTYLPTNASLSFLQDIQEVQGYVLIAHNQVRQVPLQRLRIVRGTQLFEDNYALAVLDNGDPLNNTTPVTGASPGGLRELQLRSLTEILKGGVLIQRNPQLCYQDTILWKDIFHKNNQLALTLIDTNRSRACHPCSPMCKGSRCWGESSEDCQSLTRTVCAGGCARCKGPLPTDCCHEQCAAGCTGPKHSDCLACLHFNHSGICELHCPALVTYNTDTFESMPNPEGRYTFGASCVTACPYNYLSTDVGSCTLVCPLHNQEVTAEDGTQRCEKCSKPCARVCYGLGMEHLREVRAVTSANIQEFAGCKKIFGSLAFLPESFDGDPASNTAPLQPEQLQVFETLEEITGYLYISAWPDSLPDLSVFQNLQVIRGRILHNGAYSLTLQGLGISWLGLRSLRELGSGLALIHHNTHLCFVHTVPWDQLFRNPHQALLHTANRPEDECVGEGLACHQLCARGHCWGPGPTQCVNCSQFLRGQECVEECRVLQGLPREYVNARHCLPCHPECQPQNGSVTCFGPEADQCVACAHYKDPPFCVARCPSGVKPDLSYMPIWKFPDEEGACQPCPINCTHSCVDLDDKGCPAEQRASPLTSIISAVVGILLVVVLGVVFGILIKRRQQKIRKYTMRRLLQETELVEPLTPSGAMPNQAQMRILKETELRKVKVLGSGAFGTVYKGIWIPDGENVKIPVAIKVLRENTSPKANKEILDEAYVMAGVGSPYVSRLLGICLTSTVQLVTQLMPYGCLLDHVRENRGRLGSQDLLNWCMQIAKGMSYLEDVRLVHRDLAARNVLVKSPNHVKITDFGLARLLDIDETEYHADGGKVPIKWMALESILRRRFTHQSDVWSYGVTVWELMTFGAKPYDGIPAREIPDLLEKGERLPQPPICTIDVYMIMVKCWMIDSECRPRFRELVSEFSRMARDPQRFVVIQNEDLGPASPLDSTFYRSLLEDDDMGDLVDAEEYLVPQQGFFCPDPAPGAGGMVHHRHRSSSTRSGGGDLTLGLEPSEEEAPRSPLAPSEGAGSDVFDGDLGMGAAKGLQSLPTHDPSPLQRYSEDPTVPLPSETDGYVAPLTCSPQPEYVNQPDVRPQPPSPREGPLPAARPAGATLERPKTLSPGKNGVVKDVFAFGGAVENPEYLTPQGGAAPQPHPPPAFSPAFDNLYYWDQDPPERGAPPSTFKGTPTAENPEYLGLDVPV

[8] = molecular target: Cyclin-dependent kinase 6 (Homo sapiens, UniProt Q00534); test: Inhibition of CDK6 (unknown origin) by FRET assay
[9] = molecular target: Vascular endothelial growth factor receptor 2 (Homo sapiens, UniProt P35968); test: Inhibition of recombinant KDR (unknown origin) using poly (Glu,Tyr) 4:1 as substrate after 60 mins by ELISA
[10] = molecular target: Fibroblast growth factor receptor 4 (Homo sapiens, UniProt P22455); test: Inhibition of recombinant human FGFR4 using poly (Glu,Tyr) 4:1 as substrate after 60 mins by ELISA
Sequence of Fibroblast growth factor receptor 4 (P22455 whole entry): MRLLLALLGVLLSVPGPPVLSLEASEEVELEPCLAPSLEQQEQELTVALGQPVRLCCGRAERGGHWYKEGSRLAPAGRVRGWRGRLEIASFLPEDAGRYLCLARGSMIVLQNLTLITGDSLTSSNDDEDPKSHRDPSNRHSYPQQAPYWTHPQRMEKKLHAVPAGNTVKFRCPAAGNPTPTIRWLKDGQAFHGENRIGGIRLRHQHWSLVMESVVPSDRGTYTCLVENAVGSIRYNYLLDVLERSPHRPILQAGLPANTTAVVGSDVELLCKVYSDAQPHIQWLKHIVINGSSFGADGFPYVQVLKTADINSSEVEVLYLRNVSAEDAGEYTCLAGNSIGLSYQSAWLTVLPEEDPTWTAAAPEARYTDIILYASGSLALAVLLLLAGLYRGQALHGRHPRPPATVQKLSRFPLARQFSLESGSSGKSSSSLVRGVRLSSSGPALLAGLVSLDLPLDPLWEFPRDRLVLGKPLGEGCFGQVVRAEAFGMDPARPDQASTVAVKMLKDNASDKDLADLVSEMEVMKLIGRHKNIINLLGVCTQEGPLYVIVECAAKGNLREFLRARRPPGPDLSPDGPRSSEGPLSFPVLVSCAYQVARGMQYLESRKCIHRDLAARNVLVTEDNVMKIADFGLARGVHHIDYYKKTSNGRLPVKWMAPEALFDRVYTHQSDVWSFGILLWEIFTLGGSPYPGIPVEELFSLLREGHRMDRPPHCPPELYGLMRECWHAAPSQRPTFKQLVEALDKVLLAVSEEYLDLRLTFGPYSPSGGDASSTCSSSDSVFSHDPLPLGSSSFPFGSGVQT

[11] = molecular target: Fibroblast growth factor receptor 2 (Homo sapiens, UniProt P21802)
Sequence of Fibroblast growth factor receptor 2 (P21802 whole entry): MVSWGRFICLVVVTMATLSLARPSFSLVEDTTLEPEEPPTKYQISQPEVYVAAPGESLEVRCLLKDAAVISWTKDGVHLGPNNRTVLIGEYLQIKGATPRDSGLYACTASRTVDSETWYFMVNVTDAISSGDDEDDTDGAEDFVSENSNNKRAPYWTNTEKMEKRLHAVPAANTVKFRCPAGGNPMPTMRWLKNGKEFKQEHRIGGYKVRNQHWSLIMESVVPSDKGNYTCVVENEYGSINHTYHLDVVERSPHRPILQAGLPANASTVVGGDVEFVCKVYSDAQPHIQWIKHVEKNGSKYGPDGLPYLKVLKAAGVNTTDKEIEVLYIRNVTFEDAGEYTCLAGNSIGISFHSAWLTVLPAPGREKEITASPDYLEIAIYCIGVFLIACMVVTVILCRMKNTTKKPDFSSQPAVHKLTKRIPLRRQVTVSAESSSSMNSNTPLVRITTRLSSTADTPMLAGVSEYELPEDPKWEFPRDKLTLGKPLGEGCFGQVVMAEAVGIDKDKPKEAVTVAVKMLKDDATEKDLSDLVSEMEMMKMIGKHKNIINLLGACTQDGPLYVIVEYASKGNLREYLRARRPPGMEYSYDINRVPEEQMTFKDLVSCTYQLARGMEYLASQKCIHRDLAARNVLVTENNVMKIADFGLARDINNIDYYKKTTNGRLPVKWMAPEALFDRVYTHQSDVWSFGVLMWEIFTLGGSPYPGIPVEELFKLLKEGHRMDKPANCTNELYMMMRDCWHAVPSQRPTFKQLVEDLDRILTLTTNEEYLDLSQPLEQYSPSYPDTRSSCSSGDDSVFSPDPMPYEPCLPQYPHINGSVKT
Description: Inhibition of recombinant human FGFR2 using poly (Glu,Tyr) 4:1 as substrate after 60 mins by ELISA

[12] = molecular target: Insulin-like growth factor 1 receptor (Homo sapiens, UniProt P08069); test: Inhibition of recombinant IGF1R (unknown origin) using poly (Glu,Tyr) 4:1 as substrate after 60 mins by ELISA
[13] = molecular target: Cyclin-dependent kinase 1 (Homo sapiens, UniProt P06493); test: Inhibition of CDK1 (unknown origin) by FRET assay
[14] = molecular target: Mitogen-activated protein kinase 1 (Homo sapiens, UniProt P28482); test: Inhibition of Erk2 (unknown origin) by FRET assay
Sequence of Mitogen-activated protein kinase 1 (P28482 whole entry): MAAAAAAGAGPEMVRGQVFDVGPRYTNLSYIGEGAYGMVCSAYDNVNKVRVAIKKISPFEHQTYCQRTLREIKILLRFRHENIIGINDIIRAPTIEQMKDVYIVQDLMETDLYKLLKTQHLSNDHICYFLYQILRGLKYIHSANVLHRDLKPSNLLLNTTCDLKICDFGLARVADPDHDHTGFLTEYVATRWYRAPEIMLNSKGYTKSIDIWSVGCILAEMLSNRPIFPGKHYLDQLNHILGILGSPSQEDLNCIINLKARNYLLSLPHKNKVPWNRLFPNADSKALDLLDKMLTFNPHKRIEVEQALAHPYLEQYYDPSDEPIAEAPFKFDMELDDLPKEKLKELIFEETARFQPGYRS

[15] = Oral bioavailability in Sprague-Dawley rat at 20 mg/kg by LC-MS/MS method; assay type: ADME, organism-based; conditions: in vivo
[16] = AUC (0 to infinity) in CD-1 mouse at 5 mg/kg, iv by LC-MS/MS method; assay type: ADME, organism-based; set-up: dose 5 mg/kg, time infinity, route intravenous; conditions: in vivo
[17] = AUC (0 to infinity) in Sprague-Dawley rat at 10 mg/kg, iv by LC-MS/MS method; assay type: ADME, organism-based; set-up: dose 10 mg/kg, time infinity, route intravenous; conditions: in vivo
NCI-H1581 [18] = test: Antitumor activity against human NCI-H1581 cells xenografted in nude mouse assessed as tumor growth inhibition at 5 mg/kg, po qd administered for 14 days measured twice per week during compound dosing; assay type: functional; conditions: 336 h, read-out: TGI
Mus musculus [19] = test: Toxicity in nude mouse xenografted with human NCI-H1581 cells assessed as body weight loss at 20 mg/kg, po qd administered for 14 days; assay type: organism-based; conditions: in vivo, 336 h
[20] = AUC (0 to infinity) in CD-1 mouse at 20 mg/kg, po by LC-MS/MS method; assay type: ADME, organism-based; set-up: dose 20 mg/kg, time infinity, route oral; conditions: in vivo
[21] = Half life in Sprague-Dawley rat at 10 mg/kg, iv by LC-MS/MS method; assay type: ADME, organism-based; conditions: in vivo
[22] = MRT in Sprague-Dawley rat at 20 mg/kg, po by LC-MS/MS method; assay type: ADME, organism-based; conditions: in vivo
[23] = Cmax in Sprague-Dawley rat at 10 mg/kg, iv by LC-MS/MS method; assay type: ADME, organism-based; set-up: dose 10 mg/kg, route intravenous; conditions: in vivo
[24] = AUC (0 to infinity) in Sprague-Dawley rat at 20 mg/kg, po by LC-MS/MS method; assay type: ADME, organism-based; set-up: dose 20 mg/kg, route oral, time infinity; conditions: in vivo
Mus musculus [25] = test: Unbound Cmax in CD-1 mouse at 5 mg/kg, iv by LC-MS/MS method; assay type: ADME, organism-based; conditions: in vivo
NCI-H1581 [26] = conditions: Homo sapiens
Description: Antitumor activity against human NCI-H1581 cells xenografted in po dosed nude mouse assessed as tumor growth inhibition administered as qd for 14 days measured twice per week during compound dosing

[27] = AUC (0 to t) in CD-1 mouse at 5 mg/kg, iv by LC-MS/MS method; assay type: ADME, organism-based; conditions: in vivo
Mus musculus [28] = test: Toxicity in nude mouse xenografted with human NCI-H1581 cells assessed as diarrhea at 20 mg/kg, po qd administered for 14 days; assay type: organism-based; conditions: in vivo, 336 h

SMILES	IC50 [1] [nM]	IC50 [2] [nM]	IC50 [3] [nM]	IC50 (Insulin receptor) [nM]	IC50 [4] [nM]	IC50 [5] [nM]	IC50 [6] [nM]	IC50 [7] [nM]	IC50 [8] [nM]	IC50 [9] [nM]	IC50 [10] [nM]	IC50 [11] [nM]	IC50 [12] [nM]	IC50 [13] [nM]	IC50 [14] [nM]	further results
Cc1n[nH]c2ccc(-c3cc(N[C@@H](CO)c4ccccc4)cnc3-c3cc(Cl)ccc3O)cc12	> 1000	273	8.6	91.6	73.1	5.3	> 1000	1 to 10	> 1000	3.7	61.7	8.6	> 100	> 1000	960	–
Cc1n[nH]c2ccc(-c3cc(N[C@@H](CO)c4ccccc4)cnc3-c3ccc(F)cc3O)cc12	> 1000	> 1000	1.3	888	15.9	2.4	> 1000	1 to 10	> 1000	2.6	93.3	4.7	> 1000	> 1000	> 1000	–
Cc1n[nH]c2ccc(-c3cc(N[C@@H](CO)c4ccccc4)cnc3-c3cc(F)ccc3O)cc12	> 1000	> 1000	6	417	27.5	6.2	> 1000	> 10	> 1000	1.7	299	1.6	> 1000	> 1000	575	bioavailability [15]: 60%; AUC(0-inf) [16]: 290 ng·h/mL; AUC(0-inf) [17]: 13800 ng·h/mL; inhibition in vivo at 5 mg/kg (NCI-H1581 [18]): 37.8%; Activity (Mus musculus [19]): Toxic; AUC(0-inf) [20]: 2410 ng·h/mL; half-life [21]: 2.39 h; MRT [22]: 6.72 h; Cmax [23]: 6540 ng/mL; AUC(0-inf) [24]: 18700 ng·h/mL; fCmax (Mus musculus [25]): 1.1 nM; TGI (NCI-H1581 [26]): Dose-dependent effect; AUC(0-t) [27]: 289 ng·h/mL; Activity (Mus musculus [28]): Toxic
OC[C@H](Nc1cnc(-c2cc(Cl)ccc2O)c(-c2ccc3cnccc3c2)c1)c1ccccc1	> 1000	168	1.9	431	23	5	> 1000	1 to 10	> 1000	0.8	7.4	2	> 1000	> 1000	196	–
